Experimental data as given in US9309242B2, “Substituted pyrido[2,3-b]pyrazines as FGFR kinase inhibitors” (priority 2011, dated 2016).
Where two headings read alike, the source gives them in different places.

Key:
[1] = test system: Ba/F3-FGFR3-transfected cells; experiment: Ba/F3-FGFR3 (plus IL3) cellular proliferation assay, counterscreen with 10 ng/ml murine IL3; format: cell-based; conditions: read-out: BAF3-FGFR3 (PLUS IL3) pIC50 (converted)
Summary of the method: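 Viability readout was resazurin reduction (ex 540/em 590 nm) after 4 h, following 24 h compound treatment at 37 °C of FGFR3-transfected Ba/F3 cells (20000/well, RPMI-1640/10% FBS). IL3-dependent counterscreen used identical conditions plus 10 ng/ml murine IL3.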

[2] = target: T1, Ba/F3-KDR-transfected cells (Homo sapiens, UniProt P35968); experiment: Ba/F3-KDR (minus IL3) cellular proliferation assay, Alamar Blue; format: cell-based
T1 construct: BAF3-KDR (MIN IL3) pIC50; other: minus IL3
Summary of the method: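 Compound in DMSO was dispensed first, then transfected cells in serum-containing RPMI-1640 were added. After a 24 h incubation, viability was gauged by resazurin reduction over 4 h, measured as fluorescence.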

FGFR1 (h) = FGFR1 (h) (Homo sapiens, UniProt P11362); experiment: FGFR1 (enzymatic assay), TR-FRET; format: biochemical; conditions: read-out: FGFR 1 pIC50 (converted)
[3] = test system: Ba/F3-Flt3-transfected cells; experiment: Ba/F3-Flt3 (plus IL3) cellular proliferation assay, counterscreen with 10 ng/ml murine IL3; format: cell-based; conditions: read-out: BAF3_FLT3 (PLUS IL3) pIC50 (converted)
Procedure: (§1) Ba/F3-Flt3 (Minus IL3 or Plus IL3) (Cellular Proliferation Assay)
(§2) In a 384 well plate, 100 nl of compound dilution in DMSO was sprayed before adding 50 μl cell culture medium (phenol red free RPMI-1640, 10% FBS, 2 mM L-Glutamine and 50 μg/ml Gentamycin) containing 20000 cells per well of Ba/F3-Flt3-transfected cells. Cells were put in an incubator at 37° C. and 5% CO2. After 24 hours, 10 μl of Alamar Blue solution (0.5 mM K3Fe(CN)6, 0.5 mM K4Fe(CN)6, 0.15 mM Resazurin and 100 mM Phosphate Buffer) was added to the wells, incubated for 4 hours at 37° C. and 5% CO2 before RFU's (Relative Fluorescence Units) (ex. 540 nm., em. 590 nm.) were measured in a fluororescence plate reader.
As a counterscreen the same experiment was performed in the presence of 10 ng/ml murine IL3.

[4] = target: T2, Ba/F3-Flt3-transfected cells (Homo sapiens, UniProt P36888, cells depend on it, form not given); experiment: Ba/F3-Flt3 (minus IL3) cellular proliferation assay, Alamar Blue; format: cell-based
T2 construct: BAF3-FLT3 (MIN IL3) pIC50; other: minus IL3
T2 sequence (P36888 1-993): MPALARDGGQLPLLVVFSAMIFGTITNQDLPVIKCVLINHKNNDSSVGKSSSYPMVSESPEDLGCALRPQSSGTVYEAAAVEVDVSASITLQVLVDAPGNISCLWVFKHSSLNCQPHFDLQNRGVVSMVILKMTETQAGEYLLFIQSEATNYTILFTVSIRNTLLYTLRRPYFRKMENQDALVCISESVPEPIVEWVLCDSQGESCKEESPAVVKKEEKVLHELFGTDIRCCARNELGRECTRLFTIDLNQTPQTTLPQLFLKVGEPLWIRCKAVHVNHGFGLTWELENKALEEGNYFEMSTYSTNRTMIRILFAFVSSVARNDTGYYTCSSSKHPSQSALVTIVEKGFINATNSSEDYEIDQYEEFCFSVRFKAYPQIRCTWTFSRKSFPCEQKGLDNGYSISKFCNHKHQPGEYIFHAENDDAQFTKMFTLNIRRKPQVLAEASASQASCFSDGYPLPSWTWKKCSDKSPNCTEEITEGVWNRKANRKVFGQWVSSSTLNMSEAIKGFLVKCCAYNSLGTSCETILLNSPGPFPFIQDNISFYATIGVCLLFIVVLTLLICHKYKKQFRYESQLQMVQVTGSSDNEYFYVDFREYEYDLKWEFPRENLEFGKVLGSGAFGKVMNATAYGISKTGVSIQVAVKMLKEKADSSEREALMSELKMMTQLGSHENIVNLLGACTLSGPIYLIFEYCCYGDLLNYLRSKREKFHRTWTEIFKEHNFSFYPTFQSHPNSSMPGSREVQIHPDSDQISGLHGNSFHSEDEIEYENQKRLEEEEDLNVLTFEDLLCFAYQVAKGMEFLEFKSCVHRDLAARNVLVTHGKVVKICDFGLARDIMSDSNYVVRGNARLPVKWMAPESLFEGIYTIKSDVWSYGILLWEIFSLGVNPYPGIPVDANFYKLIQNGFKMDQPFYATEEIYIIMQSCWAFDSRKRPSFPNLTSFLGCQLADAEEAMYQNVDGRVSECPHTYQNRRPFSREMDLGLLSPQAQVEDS
Procedure: as §1
as §2, with “reader. […]” for “reader.”

[5] = plus IL3 (10 ng/ml murine IL3, counterscreen)
[6] = average values if tested multiple times

Sequence of FGFR1 (h) (P11362 22-822): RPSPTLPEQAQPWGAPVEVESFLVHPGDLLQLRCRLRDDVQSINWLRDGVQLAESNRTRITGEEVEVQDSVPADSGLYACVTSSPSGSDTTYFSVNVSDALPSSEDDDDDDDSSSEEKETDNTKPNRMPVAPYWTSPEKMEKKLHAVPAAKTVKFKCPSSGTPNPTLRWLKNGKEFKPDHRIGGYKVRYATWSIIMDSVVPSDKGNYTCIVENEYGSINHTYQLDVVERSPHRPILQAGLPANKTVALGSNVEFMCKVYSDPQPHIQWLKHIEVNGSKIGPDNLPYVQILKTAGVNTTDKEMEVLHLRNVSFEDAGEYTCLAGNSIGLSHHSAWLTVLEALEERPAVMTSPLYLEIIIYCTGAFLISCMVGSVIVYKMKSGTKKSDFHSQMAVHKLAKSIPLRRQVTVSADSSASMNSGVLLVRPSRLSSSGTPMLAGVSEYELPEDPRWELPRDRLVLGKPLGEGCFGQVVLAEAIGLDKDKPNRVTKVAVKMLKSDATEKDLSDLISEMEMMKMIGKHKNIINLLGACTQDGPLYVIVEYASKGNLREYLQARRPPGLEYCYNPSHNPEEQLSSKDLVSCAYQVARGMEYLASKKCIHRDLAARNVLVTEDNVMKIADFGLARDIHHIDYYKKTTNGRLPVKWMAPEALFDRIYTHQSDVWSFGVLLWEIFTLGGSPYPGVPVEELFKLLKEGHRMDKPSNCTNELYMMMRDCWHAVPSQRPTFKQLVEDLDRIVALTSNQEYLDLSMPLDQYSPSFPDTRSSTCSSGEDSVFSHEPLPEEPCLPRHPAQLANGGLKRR
T1 sequence (P35968 whole entry, change not shown): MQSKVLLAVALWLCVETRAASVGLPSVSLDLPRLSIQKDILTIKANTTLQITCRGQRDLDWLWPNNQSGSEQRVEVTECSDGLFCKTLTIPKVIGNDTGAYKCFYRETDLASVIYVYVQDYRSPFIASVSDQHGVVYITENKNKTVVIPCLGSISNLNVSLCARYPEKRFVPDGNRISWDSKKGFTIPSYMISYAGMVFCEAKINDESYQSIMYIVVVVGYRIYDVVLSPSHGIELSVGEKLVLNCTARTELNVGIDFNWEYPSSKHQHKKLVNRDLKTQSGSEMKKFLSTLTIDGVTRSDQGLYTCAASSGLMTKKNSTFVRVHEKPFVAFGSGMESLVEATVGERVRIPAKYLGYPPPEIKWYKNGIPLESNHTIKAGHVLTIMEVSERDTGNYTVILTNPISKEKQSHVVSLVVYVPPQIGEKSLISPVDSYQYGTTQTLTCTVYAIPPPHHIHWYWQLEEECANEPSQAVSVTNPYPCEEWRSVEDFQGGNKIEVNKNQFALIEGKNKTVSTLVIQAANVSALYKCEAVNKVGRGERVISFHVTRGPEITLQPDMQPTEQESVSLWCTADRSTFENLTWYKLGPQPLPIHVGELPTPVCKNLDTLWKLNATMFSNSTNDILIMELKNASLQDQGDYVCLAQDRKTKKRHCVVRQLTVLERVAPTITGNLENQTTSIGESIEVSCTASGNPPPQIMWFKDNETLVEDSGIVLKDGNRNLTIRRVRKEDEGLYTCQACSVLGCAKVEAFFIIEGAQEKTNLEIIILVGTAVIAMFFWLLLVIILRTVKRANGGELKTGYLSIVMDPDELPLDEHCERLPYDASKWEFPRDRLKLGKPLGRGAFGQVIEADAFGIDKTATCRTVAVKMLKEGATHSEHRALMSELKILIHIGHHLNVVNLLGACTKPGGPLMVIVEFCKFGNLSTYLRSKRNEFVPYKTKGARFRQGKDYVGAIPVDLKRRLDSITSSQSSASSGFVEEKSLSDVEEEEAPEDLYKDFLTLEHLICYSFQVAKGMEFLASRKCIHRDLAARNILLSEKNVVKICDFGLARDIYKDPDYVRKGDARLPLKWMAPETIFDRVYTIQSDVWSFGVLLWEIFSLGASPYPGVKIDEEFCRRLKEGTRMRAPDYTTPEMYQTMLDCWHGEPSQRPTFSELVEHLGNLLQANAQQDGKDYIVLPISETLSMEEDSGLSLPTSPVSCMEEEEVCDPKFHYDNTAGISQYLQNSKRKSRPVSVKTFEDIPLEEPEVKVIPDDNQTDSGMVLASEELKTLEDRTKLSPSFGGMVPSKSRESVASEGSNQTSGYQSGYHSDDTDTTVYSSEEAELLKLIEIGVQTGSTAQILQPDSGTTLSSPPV

| SMILES | melting point | IC50 [1, 5] | BAF3-KDR (MIN IL3) pIC50 [2] | IC50 (FGFR1 (h); [6]) | IC50 (FGFR1 (h)) | IC50 [3, 5] | BAF3-FLT3 (MIN IL3) pIC50 [4] | IC50 [3] | IC50 [1] |
| --- | --- | --- | --- | --- | --- | --- | --- | --- | --- |
| COc1cc(OC)c(F)c(/N=c2\ccc3ncc(-c4cnn(C)c4)nc3n2CCCN2CCCC2=O)c1F [Compound 55] | 227 °C | > 10000 nM | 7.13 | 0.603 nM | – | – | – | – | – |
| COCC(O)CN(c1ccc2ncc(-c3cnn(C)c3)nc2n1)c1c(F)c(OC)cc(OC)c1F (stereo not drawn) [Compound 50] | 162 to 163 °C | > 10000 nM | 6.23 | 1.74 nM | – | – | – | – | – |
| COc1cc(OC)c(F)c(N(CC2CCCCO2)c2ccc3ncc(-c4cnn(C)c4)nc3n2)c1 (stereo not drawn) [Compound 139] | 94 °C | > 10000 nM | 5.33 | – | 3.16 nM | – | – | – | – |
| COc1cc(OC)c(F)c(N(CCO)c2ccc3ncc(-c4cnn(C)c4)nc3n2)c1F [Compound 20] | – | > 10000 nM | 6.53 | 25.1 nM | – | > 10000 nM | 5.23 | – | – |
| COc1cc(OC)c(Cl)c(N(C[C@H]2CCC(=O)N2)c2ccc3ncc(-c4cnn(C)c4)nc3n2)c1Cl [Compound 97] | 150 °C | > 10000 nM | 5.35 | 5.25 nM | – | – | – | – | – |
| COc1cc(OC)c(Cl)c(/N=c2\ccc3ncc(-c4cnn(C)c4)nc3n2CC2CCC(=O)N2)c1Cl (single isomer, unassigned) [Compound 87] | 160 °C | > 10000 nM | 5.45 | 4.07 nM | – | – | – | – | – |
| COc1cc(OC)c(F)c(N(Cc2nn[nH]n2)c2ccc3ncc(-c4cnn(C)c4)nc3n2)c1 [Compound 140] | 149 °C | > 10000 nM | <5 | – | 11.7 nM | – | – | – | – |
| COc1cc(OC)cc(N(CC(O)C(F)(F)F)c2ccc3ncc(-c4cnn(C)c4)nc3n2)c1 (single isomer, unassigned) [Compound 33] | 208 °C | > 10000 nM | 5.26 | 0.871 nM | – | – | – | – | – |
| CNCCN(c1ccc2ncc(-c3cnn(C)c3)nc2n1)c1cc(OC)cc(OC)c1F [Compound 39] | – | – | ~6.19 | 2.19 nM | – | – | <5 | > 10000 nM | > 10000 nM |
| CNCCn1/c(=N/c2cc(OC)cc(OC)c2F)ccc2ncc(-c3cnn(C)c3)nc21 [Compound 38] | – | > 10000 nM | 5.13 | 2.45 nM | – | > 10000 nM | <5 | – | – |
| COc1cc(OC)c(F)c(N(CC2COC(=O)N2)c2ccc3ncc(-c4cnn(C)c4)nc3n2)c1 (single isomer, unassigned) [Compound 111] | 202 °C | > 10000 nM | 5.61 | 1.15 nM | – | – | – | – | – |
| COc1cc(OC)c(F)c(N(c2ccc3ncc(-c4cnn(C)c4)nc3n2)C(CO)COC(C)C)c1 (single isomer, unassigned) [Compound 76] | 137 to 138 °C | > 10000 nM | <5 | 302 nM | – | – | – | – | – |
